In PMC6009956, “Design, synthesis and biological activity of N^4-phenylsubstituted-7H-pyrrolo[2,3-d]pyrimidin-4-amines as dual inhibitors of aurora kinase A and epidermal growth factor receptor kinase” (Journal of Enzyme Inhibition and Medicinal Chemistry, 2017):
Read-outs that look alike come from different tables or passages of the source.

Experiments:
[1] = target: T1, aurora A kinase (AURKA) (Homo sapiens, UniProt O14965); test: ADP-Glo kinase assay, Aurora A; format: biochemical
T1 construct: purchased BPS Bioscience (assay run externally by the vendor)
T1 sequence (O14965 1-403): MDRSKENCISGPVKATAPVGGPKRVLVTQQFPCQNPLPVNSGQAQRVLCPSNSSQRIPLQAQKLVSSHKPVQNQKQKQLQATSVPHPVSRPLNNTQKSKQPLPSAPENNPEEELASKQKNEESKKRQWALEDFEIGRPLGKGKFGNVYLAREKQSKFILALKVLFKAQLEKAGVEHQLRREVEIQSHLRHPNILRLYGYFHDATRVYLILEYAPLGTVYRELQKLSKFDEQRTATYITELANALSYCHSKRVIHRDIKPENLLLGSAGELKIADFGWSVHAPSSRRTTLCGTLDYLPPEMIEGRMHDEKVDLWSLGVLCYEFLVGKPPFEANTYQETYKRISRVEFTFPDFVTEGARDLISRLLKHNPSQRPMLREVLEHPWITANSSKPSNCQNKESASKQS

[2] = target: EGFR (Homo sapiens, UniProt P00533); test: ADP-Glo kinase assay, EGFR; format: biochemical; set-up: purchased BPS Bioscience (assay run externally by the vendor)
[3] = 10 µM ATP, triplicate, read-out: AURKA IC50 ± SD
[4] = 10 µM ATP/0.2 mg/ml Kemptide, read-out: Aurora A IC50 (dose-response curve, supplement)
[5] = 10 µM ATP, triplicate, read-out: EGFR IC50 ± SD
[6] = 10 µM ATP/0.2 mg/ml Poly-Glu-Tyr, read-out: EGFR IC50 (dose-response curve, supplement)

Chain of EGFR (P00533 25-1210): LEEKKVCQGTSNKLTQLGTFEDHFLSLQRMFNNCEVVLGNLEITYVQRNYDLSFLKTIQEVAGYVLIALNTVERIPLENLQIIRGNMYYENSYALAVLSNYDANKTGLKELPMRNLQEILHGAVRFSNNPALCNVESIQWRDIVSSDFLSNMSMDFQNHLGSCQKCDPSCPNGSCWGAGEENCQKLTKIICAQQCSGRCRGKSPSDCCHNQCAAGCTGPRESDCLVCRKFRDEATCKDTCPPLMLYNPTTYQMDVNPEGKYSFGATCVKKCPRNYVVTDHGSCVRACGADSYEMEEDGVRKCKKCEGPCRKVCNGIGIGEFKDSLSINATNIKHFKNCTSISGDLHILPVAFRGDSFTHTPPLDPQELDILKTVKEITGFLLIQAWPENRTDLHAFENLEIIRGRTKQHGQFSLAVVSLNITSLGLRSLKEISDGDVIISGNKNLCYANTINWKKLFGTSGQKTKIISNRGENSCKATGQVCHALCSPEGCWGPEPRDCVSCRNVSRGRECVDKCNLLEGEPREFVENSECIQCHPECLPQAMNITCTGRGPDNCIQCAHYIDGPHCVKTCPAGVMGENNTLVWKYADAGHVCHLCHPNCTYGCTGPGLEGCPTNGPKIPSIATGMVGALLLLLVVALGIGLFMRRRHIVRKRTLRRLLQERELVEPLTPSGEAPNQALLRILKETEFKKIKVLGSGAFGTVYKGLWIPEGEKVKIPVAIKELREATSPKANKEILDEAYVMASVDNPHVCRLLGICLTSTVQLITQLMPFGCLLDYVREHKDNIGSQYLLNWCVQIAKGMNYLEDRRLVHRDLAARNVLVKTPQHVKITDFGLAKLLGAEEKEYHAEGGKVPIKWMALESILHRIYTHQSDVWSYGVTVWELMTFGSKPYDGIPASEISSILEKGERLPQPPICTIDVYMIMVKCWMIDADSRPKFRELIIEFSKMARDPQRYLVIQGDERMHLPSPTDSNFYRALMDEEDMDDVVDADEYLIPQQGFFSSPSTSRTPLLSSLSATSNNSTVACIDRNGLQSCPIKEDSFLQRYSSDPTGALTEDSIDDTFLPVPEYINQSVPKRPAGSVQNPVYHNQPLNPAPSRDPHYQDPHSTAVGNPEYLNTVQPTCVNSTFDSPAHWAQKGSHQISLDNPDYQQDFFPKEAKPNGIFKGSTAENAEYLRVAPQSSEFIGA

SMILES: Clc1ccc(Nc2ncnc3[nH]ccc23)cc1 [Compound 4, N^4-(4-chlorophenyl)-7H-pyrrolo[2,3-d]pyrimidine-4-amine]
- IC50 [1, 3]: 5.15 ± 0.37 µM
- IC50 [1, 4]: 5.2 µM
- Aurora A % Activity Set1 ([1]; Log[nM] 0): 98%
- Aurora A % Activity Set2 ([1]; Log[nM] 0): 101%
- Aurora A % Activity Set3 ([1]; Log[nM] 0): 97%
- Aurora A % Activity Set1 ([1]; Log[nM] 1.0): 99%
- Aurora A % Activity Set2 ([1]; Log[nM] 1.0): 98%
- Aurora A % Activity Set3 ([1]; Log[nM] 1.0): 100%
- Aurora A % Activity Set1 ([1]; Log[nM] 1.5): 104%
- Aurora A % Activity Set2 ([1]; Log[nM] 1.5): 108%
- Aurora A % Activity Set3 ([1]; Log[nM] 1.5): 102%
- Aurora A % Activity Set1 ([1]; Log[nM] 2.0): 105%
- Aurora A % Activity Set2 ([1]; Log[nM] 2.0): 107%
- Aurora A % Activity Set3 ([1]; Log[nM] 2.0): 104%
- Aurora A % Activity Set1 ([1]; Log[nM] 2.5): 103%
- Aurora A % Activity Set2 ([1]; Log[nM] 2.5): 99%
- Aurora A % Activity Set3 ([1]; Log[nM] 2.5): 101%
- Aurora A % Activity Set1 ([1]; Log[nM] 3.0): 88%
- Aurora A % Activity Set2 ([1]; Log[nM] 3.0): 93%
- Aurora A % Activity Set3 ([1]; Log[nM] 3.0): 86%
- Aurora A % Activity Set1 ([1]; Log[nM] 3.5): 66%
- Aurora A % Activity Set2 ([1]; Log[nM] 3.5): 69%
- Aurora A % Activity Set3 ([1]; Log[nM] 3.5): 68%
- Aurora A % Activity Set1 ([1]; Log[nM] 4.0): 25%
- Aurora A % Activity Set2 ([1]; Log[nM] 4.0): 28%
- Aurora A % Activity Set3 ([1]; Log[nM] 4.0): 25%
- Aurora A % Activity Set1 ([1]; Log[nM] 4.5): 11%
- Aurora A % Activity Set2 ([1]; Log[nM] 4.5): 11%
- Aurora A % Activity Set3 ([1]; Log[nM] 4.5): 11%
- Aurora A % Activity Set1 ([1]; Log[nM] 5.0): 9%
- Aurora A % Activity Set2 ([1]; Log[nM] 5.0): 10%
- Aurora A % Activity Set3 ([1]; Log[nM] 5.0): 9%
- IC50 [2, 5]: 0.0849 ± 0.0159 µM
- IC50 [2, 6]: 0.0845 µM
- EGFR % Activity Set1 ([2]; Log[nM] 0): 102%
- EGFR % Activity Set2 ([2]; Log[nM] 0): 96%
- EGFR % Activity Set3 ([2]; Log[nM] 0): 97%
- EGFR % Activity Set1 ([2]; Log[nM] 1.0): 102%
- EGFR % Activity Set2 ([2]; Log[nM] 1.0): 97%
- EGFR % Activity Set3 ([2]; Log[nM] 1.0): 96%
- EGFR % Activity Set1 ([2]; Log[nM] 1.5): 65%
- EGFR % Activity Set2 ([2]; Log[nM] 1.5): 61%
- EGFR % Activity Set3 ([2]; Log[nM] 1.5): 64%
- EGFR % Activity Set1 ([2]; Log[nM] 2.0): 50%
- EGFR % Activity Set2 ([2]; Log[nM] 2.0): 45%
- EGFR % Activity Set3 ([2]; Log[nM] 2.0): 52%
- EGFR % Activity Set1 ([2]; Log[nM] 2.5): 19%
- EGFR % Activity Set2 ([2]; Log[nM] 2.5): 19%
- EGFR % Activity Set3 ([2]; Log[nM] 2.5): 22%
- EGFR % Activity Set1 ([2]; Log[nM] 3.0): 10%
- EGFR % Activity Set2 ([2]; Log[nM] 3.0): 10%
- EGFR % Activity Set3 ([2]; Log[nM] 3.0): 12%
- EGFR % Activity Set1 ([2]; Log[nM] 3.5): 4%
- EGFR % Activity Set2 ([2]; Log[nM] 3.5): 4%
- EGFR % Activity Set3 ([2]; Log[nM] 3.5): 4%
- EGFR % Activity Set1 ([2]; Log[nM] 4.0): 2%
- EGFR % Activity Set2 ([2]; Log[nM] 4.0): 2%
- EGFR % Activity Set3 ([2]; Log[nM] 4.0): 2%
- EGFR % Activity Set1 ([2]; Log[nM] 4.5): 1%
- EGFR % Activity Set2 ([2]; Log[nM] 4.5): 1%
- EGFR % Activity Set3 ([2]; Log[nM] 4.5): 1%
- EGFR % Activity Set1 ([2]; Log[nM] 5.0): 1%
- EGFR % Activity Set2 ([2]; Log[nM] 5.0): 1%
- EGFR % Activity Set3 ([2]; Log[nM] 5.0): 1%

SMILES: Cc1ccccc1Nc1ncnc2[nH]ccc12 [Compound 15, N^4-(2-methylphenyl)-7H-pyrrolo[2,3-d]pyrimidin-4-amine]
- IC50 [1, 3]: 8.56 ± 1.74 µM
- IC50 [1, 4]: 8.5 µM
- Aurora A % Activity Set1 ([1]; Log[nM] 0): 95%
- Aurora A % Activity Set2 ([1]; Log[nM] 0): 97%
- Aurora A % Activity Set3 ([1]; Log[nM] 0): 102%
- Aurora A % Activity Set1 ([1]; Log[nM] 1.0): 102%
- Aurora A % Activity Set2 ([1]; Log[nM] 1.0): 103%
- Aurora A % Activity Set3 ([1]; Log[nM] 1.0): 102%
- Aurora A % Activity Set1 ([1]; Log[nM] 1.5): 105%
- Aurora A % Activity Set2 ([1]; Log[nM] 1.5): 105%
- Aurora A % Activity Set3 ([1]; Log[nM] 1.5): 107%
- Aurora A % Activity Set1 ([1]; Log[nM] 2.0): 98%
- Aurora A % Activity Set2 ([1]; Log[nM] 2.0): 107%
- Aurora A % Activity Set3 ([1]; Log[nM] 2.0): 109%
- Aurora A % Activity Set1 ([1]; Log[nM] 2.5): 103%
- Aurora A % Activity Set2 ([1]; Log[nM] 2.5): 103%
- Aurora A % Activity Set3 ([1]; Log[nM] 2.5): 107%
- Aurora A % Activity Set1 ([1]; Log[nM] 3.0): 92%
- Aurora A % Activity Set2 ([1]; Log[nM] 3.0): 102%
- Aurora A % Activity Set3 ([1]; Log[nM] 3.0): 98%
- Aurora A % Activity Set1 ([1]; Log[nM] 3.5): 66%
- Aurora A % Activity Set2 ([1]; Log[nM] 3.5): 73%
- Aurora A % Activity Set3 ([1]; Log[nM] 3.5): 70%
- Aurora A % Activity Set1 ([1]; Log[nM] 4.0): 44%
- Aurora A % Activity Set2 ([1]; Log[nM] 4.0): 48%
- Aurora A % Activity Set3 ([1]; Log[nM] 4.0): 48%
- Aurora A % Activity Set1 ([1]; Log[nM] 4.5): 18%
- Aurora A % Activity Set2 ([1]; Log[nM] 4.5): 18%
- Aurora A % Activity Set3 ([1]; Log[nM] 4.5): 19%
- Aurora A % Activity Set1 ([1]; Log[nM] 5.0): 11%
- Aurora A % Activity Set2 ([1]; Log[nM] 5.0): 11%
- Aurora A % Activity Set3 ([1]; Log[nM] 5.0): 11%
- IC50 [2, 5]: 1.23 ± 0.201 µM
- IC50 [2, 6]: 1.2 µM
- EGFR % Activity Set1 ([2]; Log[nM] 0): 97%
- EGFR % Activity Set2 ([2]; Log[nM] 0): 98%
- EGFR % Activity Set3 ([2]; Log[nM] 0): 121%
- EGFR % Activity Set1 ([2]; Log[nM] 1.0): 109%
- EGFR % Activity Set2 ([2]; Log[nM] 1.0): 101%
- EGFR % Activity Set3 ([2]; Log[nM] 1.0): 128%
- EGFR % Activity Set1 ([2]; Log[nM] 1.5): 113%
- EGFR % Activity Set2 ([2]; Log[nM] 1.5): 108%
- EGFR % Activity Set3 ([2]; Log[nM] 1.5): 122%
- EGFR % Activity Set1 ([2]; Log[nM] 2.0): 111%
- EGFR % Activity Set2 ([2]; Log[nM] 2.0): 102%
- EGFR % Activity Set3 ([2]; Log[nM] 2.0): 99%
- EGFR % Activity Set1 ([2]; Log[nM] 2.5): 77%
- EGFR % Activity Set2 ([2]; Log[nM] 2.5): 82%
- EGFR % Activity Set3 ([2]; Log[nM] 2.5): 84%
- EGFR % Activity Set1 ([2]; Log[nM] 3.0): 55%
- EGFR % Activity Set2 ([2]; Log[nM] 3.0): 59%
- EGFR % Activity Set3 ([2]; Log[nM] 3.0): 52%
- EGFR % Activity Set1 ([2]; Log[nM] 3.5): 20%
- EGFR % Activity Set2 ([2]; Log[nM] 3.5): 24%
- EGFR % Activity Set3 ([2]; Log[nM] 3.5): 23%
- EGFR % Activity Set1 ([2]; Log[nM] 4.0): 12%
- EGFR % Activity Set2 ([2]; Log[nM] 4.0): 12%
- EGFR % Activity Set3 ([2]; Log[nM] 4.0): 10%
- EGFR % Activity Set1 ([2]; Log[nM] 4.5): 4%
- EGFR % Activity Set2 ([2]; Log[nM] 4.5): 5%
- EGFR % Activity Set3 ([2]; Log[nM] 4.5): 4%
- EGFR % Activity Set1 ([2]; Log[nM] 5.0): 4%
- EGFR % Activity Set2 ([2]; Log[nM] 5.0): 3%
- EGFR % Activity Set3 ([2]; Log[nM] 5.0): 3%
